Laboratory results: patent publication US5798391A, “Injectable solution of benzalkonium fluoride” (Aromafarm Limited, priority 1994, dated 1998)
Like-named read-outs stand apart in the source and are kept apart here.

Key:
[1] = test system: E[…] 1; type: cell-based, polio enterovirus 1, SABIN strain; conditions: 32° C.
[2] = test system: HERPES SIMPLEX VIRUS TYPE 1; test: virucidal activity of BKF, AFNOR T72-180, molecular screening (Table 4); type: cell-based, Herpes Simplex Virus Type 1 (HSV 1); conditions: 32° C.
[3] = test system: HERPES SIMPLEX VIRUS TYPE 2; test: virucidal activity of BKF, AFNOR T72-180, molecular screening (Table 5); type: cell-based, Herpes Simplex Virus Type 2 (HSV 2); conditions: 32° C.
[4] = test system: HIV-1 virus (LAI strain); test: residual infectiousness of treated HIV-1 on activated human lymphocytes, reverse transcriptase activity; type: cell-based, HIV-1 (LAI strain)
[5] = test system: HIV-1 virus (LAI strain); test: residual infectiousness of treated HIV-1 on activated human lymphocytes, antigen P25 ELISA; type: cell-based, HIV-1 (LAI strain); conditions: 1/2 dilutions, REV7 (30 min) and REV8 (60 min) (FIG. 4)
[6] = test system: activated human PBMC lymphocytes; test: toxicity of residual BKF (sample REV4) on infectiousness test cells; type: cell-based; conditions: REV4: BKF 20 μg/ml diluted in NTE buffer and centrifuged
[7] = test system: guinea pigs; test: LD 50, unique administration, Behrens and Karber method, guinea pigs; type: in vivo, albino guinea pig
Method: The high toxicity of benzalkonium fluoride in unique administration in mice and guinea pigs was determined by the Behrens and Karber method, by intracardiac, intravenous and intraperitoneal injection. The animals used were young adult albino mice and albino guinea pigs. Ten animals were used for each dose administered, five males and five females. The benzalkonium fluoride was used in a 3 g/l isotonic solution of sterile apyrogenic sodium chloride. We observed the animals for 7 days after unique administration carried out using a sterile needle adapted to a syringe graduated in 1/10 ml to allow the treatment of each animal with an exact dose. The animals were weighed each day during the observation period.
The LD 50 (lethal dose 50) was determined.

[8] = test system: Carre's disease; test: treatment of dogs suffering from Carre's disease; type: in vivo, dog
Method: The invention was used to treat dogs suffering from Carre's disease. This disease, considered fatal and without treatment, is due to an ultravirus.
Twelve dogs were treated with one 10 ml ampoule of benzalkonium fluoride solution at 2.1 g/l for 20 kg of animal. The injection was given once per day for three days. The dogs also had associated treatment (vitamins, antibiotics, vaccines, etc.).

[9] = test system: VERO, KB and MCR-5 cells
[10] = test system: dogs (beagles); conditions: dog, in vivo
[11] = test system: parvovirus
[12] = in vitro haemolysis of total blood, human; conditions: human, blood
[13] = test system: human blood; test: in vitro haemolysis of total blood, human
[14] = test system: rabbit blood; test: in vitro haemolysis of total blood, rabbit
[15] = test system: guinea pig blood; test: in vitro haemolysis of total blood, guinea pig
[16] = test system: patient's blood; test: haemolytic concentration on AIDS patients' blood before injection; conditions: solution used 2.1 g/l
[17] = test system: dogs (beagles); test: local and general tolerance of intravenous administration in dogs, 28 days; conditions: injected intravenously
[18] = test system: AIDS; conditions: person
[19] = female German Pointer 12 kg, same treatment

CCCCCCCCCCCCCC[N+](C)(C)Cc1ccccc1.[F-] [benzalkonium fluoride, tetradecyl-dimethyl-benzyl-ammonium fluoride]
virucidal activity: minimal contact time ([1]; 0.01% (m/V)): 30 min
Viral Titration ([1]; 0.01% (m/V), 30 minutes): 0 PFU/ml
Viral Titration ([1]; 0.01% (m/V), 60 minutes): 0 PFU/ml
Viral Titration ([1]; 0.01% (m/V), 120 minutes): 0 PFU/ml
Viral Titration ([1]; 0.02% (m/V), 120 minutes): 0 PFU/ml
virucidal activity: minimal concentration (reduction by logarithmic factor of at least 4) ([1]; 30 minutes contact): 0.01 % (m/V)
virucidal activity: minimal contact time ([2]; 0.01% (m/V)): 5 min
Viral Titration ([2]; 0.01% (m/V), 30 minutes): 0 PFU/ml
Viral Titration ([2]; 0.01% (m/V), 60 minutes): 0 PFU/ml
Viral Titration ([2]; 0.01% (m/V), 120 minutes): 0 PFU/ml
Viral Titration ([2]; 0.02% (m/V), 15 minutes): 0 PFU/ml
Viral Titration ([2]; 0.02% (m/V), 30 minutes): 0 PFU/ml
Viral Titration ([2]; 0.02% (m/V), 60 minutes): 0 PFU/ml
Viral Titration ([2]; 0.02% (m/V), 120 minutes): 0 PFU/ml
virucidal activity: minimal concentration (reduction by logarithmic factor of at least 4) ([2]; 5 minutes contact): 0.01 % (m/V)
virucidal activity: minimal contact time ([3]; 0.01% (m/V)): 15 min
Viral Titration ([3]; 0.01% (m/V), 60 minutes): 0 PFU/ml
Viral Titration ([3]; 0.01% (m/V), 120 minutes): 0 PFU/ml
Viral Titration ([3]; 0.02% (m/V), 15 minutes): 0 PFU/ml
Viral Titration ([3]; 0.02% (m/V), 30 minutes): 0 PFU/ml
Viral Titration ([3]; 0.02% (m/V), 60 minutes): 0 PFU/ml
Viral Titration ([3]; 0.02% (m/V), 120 minutes): 0 PFU/ml
virucidal activity: minimal concentration (reduction by logarithmic factor of at least 4) ([3]; 15 minutes contact): 0.01 % (m/V)
RT activity in culture supernatants ([4]; 1/2 dilution of virus treated with BKF, second experiment (FIG. 2)): No RT activity was detected
reverse transcriptase activity in culture supernatants ([4]; 1/10 dilution of virus treated with BKF 20 μg/ml for 30 or 60 minutes (FIG. 1)): no reverse transcriptase activity is revealed
log reduction at 20 µg/mL ([4]; Human immunodeficiency virus 1, Lymphocyte, 20 μg/ml, activated human lymphocytes, read-out: loss of infectious capacity in the HIV-1 virus): 5
antigen P25 in lymphocyte supernatants [5]: negative
toxicity for the infectiousness test cells [6]: not toxic
LD 50 ([7]; female guinea pig, intracardiac): 16.50 mg/mL
LD 50 ([7]; female guinea pig, intraperitoneal): 20.50 mg/mL
LD 50 ([7]; male guinea pig, intracardiac): 15.50 mg/mL
LD 50 ([7]; male guinea pig, intraperitoneal): 28.50 mg/mL
dogs with nervous symptoms ([8]; five other dogs, generalised trembling): could not be treated
dogs saved ([8]; of twelve dogs, 10 ml of 2.1 g/l per 20 kg once per day, three days, associated treatment): effective for seven dogs who were saved
total recovery ([8]; seven dogs saved): 18 days
toxicity threshold (D.L.0) ([9]; after filtration): 0.01%
toxicity threshold (D.L.0) ([9]; before filtration): 0.05%
blood in the urine, male [10]: a high level of blood in the urine
blood in urine from bladder, male [10]: no trace of blood
blood in urine, male [10]: absence of blood
glucose in urine, male [10]: absence of glucose
haemolysis in urine samples, female [10]: no signs of h.ae butted.molysis
histological examination of the various organs [10]: no alteration due to treatment
ketonic bodies in urine, male [10]: traces of ketonic bodies
number of leukocytes [10]: increased
proteins in urine, male [10]: traces of proteins
urine sodium and potassium, female [10]: remained almost stable
urine sodium and potassium, male [10]: showed variations
tolerance ([11]; dog, in vivo): excellent
normal eating [11, 19]: 4 days
total recovery confirmed [11, 19]: 18 days
total recovery ([11]; female German Shepherd 10 kg, 10 ml then 20 ml, associated treatment 8 days): 20 days
complete recovery ([11]; female Rottweiler 15 kg, two injections of 10 ml, 12 h apart): 18 days
recovery, days after start of treatment ([11]; male German Shepherd 20 kg, two injections at 12 h interval, 2.1 g/l): 6 days
normal eating ([11]; male Newfoundland 28 kg, after four days): eating normally
blood in urine and vomiting ([11]; male Newfoundland 28 kg, two injections of 10 ml, end of second day): the blood had disappeared from the urine and the dog no longer vomited
death ([11]; three puppies with violent evolutive gastro-enteritis, two injections at 12 h interval): Death occurred within two days
MNTC [12]: ≤ 20 µg/mL
haemolysis ([13]; 37.5 mg/l, man, guinea pig and rabbit blood): Not having noted h.ae butted.molysis
haemolysis (degree of red colouring) ([13]; 20 ppm or mg/l, 6 samples): 0
haemolysis (degree of red colouring) ([13]; 35 ppm or mg/l, 6 samples): 0
haemolysis (degree of red colouring) ([13]; 37.5 ppm or mg/l): 0
haemolysis (degree of red colouring) ([13]; 75 ppm or mg/l): +
haemolysis (degree of red colouring) ([13]; 150 ppm or mg/l): ++
haemolysis (degree of red colouring) ([14]; 37.5 ppm or mg/l): 0
haemolysis (degree of red colouring) ([14]; 75 ppm or mg/l): +
haemolysis (degree of red colouring) ([14]; 150 ppm or mg/l): +++
haemolysis (degree of red colouring) ([15]; 37.5 ppm or mg/l): 0
haemolysis (degree of red colouring) ([15]; 75 ppm or mg/l): +
haemolysis (degree of red colouring) ([15]; 150 ppm or mg/l): ++++
haemolytic concentration on patient's blood [16]: well above that of the solution used
toxic effect, overall [17]: no remarkable toxic effect
pain at the injection point ([18]; 50 ml at 2.1 g/l every twelve hours, end of second cure): pain at the injection point
number of CD4 ([18]; after treatment, before: less than 200): 600
general state ([18]; fourth month): returned to a normal general state
general state ([18]; one month and seven months after treatment): a good general state
fever ([18]; sixth day, 50 ml at 2.1 g/l every eight hours, three days, with Doxycycline): the fever had disappeared
fever, vomiting and diarrhoea ([18]; tenth day): disappearance of the fever, vomiting and diarrhoea
general state ([18]; tenth day, two cures of three days): a clear improvement in the general state
weight after gain ([18]; tenth day, before 57 kg): 59.6 kg
fever ([18]; third day, 2.1 g/l every twelve hours): a clear fall in the fever
clinical symptoms ([18]; three and a half months): no clinical symptoms
general state ([18]; three and a half months): a good general state
weight ([18]; three and a half months, before 52 kg): 56 kg
number of CD4 ([18]; three and a half months, before 200): 700
mobility ([18]; totally bedridden before): could get up and walk
asthenia ([18]; two months after start): progressive disappearance of the asthenia
